Data as given in US11266170B2, “Sweetener and flavor compositions, methods of making and methods of use thereof” (EPC Natural Products Co., Ltd., priority 2018, dated 2022).
Residues, ends and D or L forms follow the SMILES beside them.

Columns and labels:
[1] = tested on: 3 persons; assay: Sensory analysis of odor/smell, color and taste of reacted samples (Examples 55-62); format: in vivo
Experimental: The reaction partners were dissolved in water and then warmed glycerin (60° C.) was added. […]
The taste test was performed as in Example 38.
All samples were assessed at 22° C. after the Maillard reaction was stopped by placing the sealed vials in an ice bath. After 20 minutes in the ice bath the sealed vials were put in a water bath set to 22° C.
The odor/smell was assessed independently by 3 persons; the final description was agreed after discussion. […] The taste was assessed independently by 3 persons either in the original samples or after appropriate dilution to achieve relevant concentrations of sugars and steviol-glycosides (i.e. 5-9% SE); the final description was agreed after discussion.

[2] = cited from earlier work; for times sweeter than sucrose: relative to sucrose / sugar, the sweetness depends on the tested concentration; for Sweetness by food energy / Sweetness by weight: compared to sucrose
[3] = negative controls (no carbohydrate source), 10 ml glycerin/water 9:1, 100 °C, 40 minutes
[4] = Example 57, before reaction, 10 ml KH2PO4, pH 7.8
[5] = Example 57, after reaction, 10 ml KH2PO4, pH 7.8, 2.5 h, 120 °C

## C[C@H](N)C(=O)O [8.91 mg Ala]
[1]; [3]
  Smell: Neutral, slightly Agar
  Taste: Slightly sweet

## OC[C@H]1OC(O)[C@H](O)[C@@H](O)[C@@H]1O (stereo partly drawn) [9 mg Glucose]
[1]; [4]
  Smell: neutral
  Taste: Sweet

## N[C@@H](CO)C(=O)O [10.5 mg Ser]
[1]; [3]
  Smell: Lotus flower
  Taste: Slightly sweet

## O=C(O)[C@@H]1CCCN1 [11.5 mg Pro]
[1]; [3]
  Taste: Slightly sweet

## C[C@@H](O)[C@H](N)C(=O)O [11.91 mg Thr]
[1]; [3]
  Smell: Vanilla, butter
  Taste: Slightly sweet

## N[C@@H](CS)C(=O)O [12.1 mg Cys]
[1]; [3]
  Smell: Unpleasant (sulfur)
  Taste: Slightly sweet

## CC[C@H](C)[C@H](N)C(=O)O [13.11 mg Ile]
[1]; [3]
  Smell: Coffee
  Taste: Slightly sweet

## NCCCC[C@H](N)C(=O)O [14.7 mg Lys]
[1]; [3]
  Smell: Popcorn
  Taste: Slightly sweet

## CSCC[C@H](N)C(=O)O [14.9 mg Met]
[1]; [3]
  Smell: Sulfuric
  Taste: Slightly sweet

## N[C@@H](Cc1ccccc1)C(=O)O [16.5 mg Phe]
[1]; [4]
  Smell: neutral
  Taste: No taste
[1]; Example 58, after reaction, 10 ml KH2PO4, pH 7.8, 2.5 h, 120 °C
  Smell: Caramel, burnt
[1]; Example 58, after reaction, after dilution 1:20
  Taste: Sweet
[1]; Example 58, before reaction, 10 ml KH2PO4, pH 7.8
  Smell: Neutral
[1]; Example 58, before reaction, after dilution 1:20
  Taste: No taste
[1]; [3]
  Smell: Bloomy, caramel
  Taste: Slightly sweet

## N[C@@H](Cc1ccc(O)cc1)C(=O)O [18.1 mg Tyr]
[1]; [3]
  Smell: neutral
  Taste: Slightly sweet

## N[C@@H](Cc1c[nH]c2ccccc12)C(=O)O [20.42 mg Try]
[1]; [3]
  Smell: Unpleasant (fecal)
  Taste: Slightly sweet

## COC(=O)[C@H](Cc1ccccc1)NC(=O)[C@@H](N)CC(=O)O [Aspartame] (H-Asp-Phe-OMe)
[2]
  times sweeter than sucrose: 160-200 times

## OC[C@@H](O)[C@@H](O)CO [Erythritol]
[2]
  Sweetness by food energy: 14
  Sweetness by weight: 0.6-0.7

## O=C[C@H](O)[C@@H](O)[C@H](O)[C@H](O)C(=O)O [Glucuronic Acid]
[1]; [5]
  Smell: burnt bread
  Taste: Bitter

## O=C1O[C@@H]2[C@@H](O)[C@H](O)O[C@@H]2C1O (stereo partly drawn) [Glucuronolactone]
[1]; [5]
  Smell: Burnt sugar
  Taste: Bitter

## OCC(O)CO [Glycerol]
[2]
  Sweetness by food energy: 0.55
  Sweetness by weight: 0.6

## CC1(C)[C@@H](O[C@H]2O[C@H](C(=O)O)[C@@H](O)[C@H](O)[C@H]2O[C@@H]2O[C@H](C(=O)O)[C@@H](O)[C@H](O)[C@H]2O)CC[C@]2(C)[C@H]3C(=O)C=C4[C@@H]5C[C@@](C)(C(=O)O)CC[C@]5(C)CC[C@@]4(C)[C@]3(C)CC[C@@H]12 [Glycyrrhizin]
[2]
  Sweetness by weight: 30-50

## OC[C@H]1O[C@H](OC[C@H]2OC(O)(CO)[C@@H](O)[C@@H]2O)[C@H](O)[C@@H](O)[C@@H]1O (stereo partly drawn) [Isomaltulose]
[2]
  Sweetness by weight: 0.5

## OC[C@@H](O)[C@@H](O[C@@H]1O[C@H](CO)[C@H](O)[C@H](O)[C@H]1O)[C@H](O)[C@@H](O)CO [Lactitol]
[2]
  Sweetness by food energy: 0.8
  Sweetness by weight: 0.4

## OC[C@@H](O)[C@@H](O[C@H]1O[C@H](CO)[C@@H](O)[C@H](O)[C@H]1O)[C@H](O)[C@@H](O)CO [Maltitol]
[2]
  Sweetness by food energy: 1.7
  Sweetness by weight: 0.75-0.9

## OC[C@@H](O)[C@@H](O)[C@H](O)[C@H](O)CO [Mannitol]
[2]
  Sweetness by food energy: 1.2
  Sweetness by weight: 0.5
  times sweeter than sucrose: 0.55-0.65 times

## N[C@@H](C[C@@](O)(Cc1c[nH]c2ccccc12)C(=O)O)C(=O)O [Monatin]
[2]
  Sweetness by weight: 3,000

## COc1ccc(CCC(=O)c2c(O)cc(O[C@@H]3O[C@H](CO)[C@@H](O)[C@H](O)[C@H]3O[C@@H]3O[C@@H](C)[C@H](O)[C@@H](O)[C@H]3O)cc2O)cc1O [NHDC, Neohesperidin dihydrochalcone]
[2]; at threshold concentrations
  times sweeter than sugar at threshold concentrations: 1500-1800 times
[2]; weight-for-weight
  times sweeter than sugar weight-for-weight: about 340 times

## C[C@@H]1O[C@@H](O[C@H]2O[C@@H]([C@@H](C)C3CC[C@@H]4[C@H]5CC(=O)[C@@H]6C[C@H](O[C@@H]7O[C@H](CO)[C@@H](O)[C@H](O)[C@H]7O[C@@H]7O[C@@H](C)[C@H](O)[C@@H](O)[C@H]7O)CC[C@]6(C)[C@@H]5CC[C@]34C)CC[C@@H]2C)[C@H](O)[C@H](O)[C@H]1O (stereo partly drawn) [Osladin]
[2]
  Sweetness by weight: 500

## O=C(CO)[C@H](O)[C@H](O)[C@H](O)CO [Psicose]
[2]
  Sweetness by weight: 0.7

## C=C1C[C@@]23CC[C@H]4[C@@](C)(CCC[C@@]4(C)C(=O)O[C@@H]4O[C@H](CO)[C@@H](O)[C@H](O)[C@H]4O)[C@@H]2CC[C@]1(O[C@@H]1O[C@H](CO)[C@@H](O)[C@H](O)[C@H]1O)C3 [Rubusoside]
[2]
  times sweeter than sucrose: 200 times

## OC[C@@H](O)[C@@H](O)[C@H](O)[C@@H](O)CO [Sorbitol]
[2]
  Sweetness by food energy: 0.9
  Sweetness by weight: 0.6

## O=C(CO)[C@@H](O)[C@@H](O)[C@H](O)CO [Tagatose]
[2]
  Sweetness by food energy: 2.4
  Sweetness by weight: 0.92

## C[C@H](CC[C@@H](O[C@@H]1O[C@H](CO)[C@@H](O)[C@H](O)[C@H]1O[C@@H]1O[C@H](CO)[C@@H](O)[C@H](O)[C@H]1O)C(C)(C)O)[C@H]1CC[C@@]2(C)[C@H]3CC=C4[C@@H](CC[C@H](O[C@@H]5O[C@H](CO[C@@H]6O[C@H](CO)[C@@H](O)[C@H](O)[C@H]6O)[C@@H](O)[C@H](O)[C@H]5O)C4(C)C)[C@]3(C)[C@H](O)C[C@]12C [mogroside IV]
[2]
  times sweeter than sucrose: 126 times

## C[C@H](CC[C@@H](O[C@@H]1O[C@H](CO[C@@H]2O[C@H](CO)[C@@H](O)[C@H](O)[C@H]2O)[C@@H](O)[C@H](O)[C@H]1O[C@@H]1O[C@H](CO)[C@@H](O)[C@H](O)[C@H]1O)C(C)(C)O)[C@H]1CC[C@@]2(C)[C@@H]3CC=C4[C@@H](CC[C@H](O[C@@H]5O[C@H](CO[C@@H]6O[C@H](CO)[C@@H](O)[C@H](O)[C@H]6O)[C@@H](O)[C@H](O)[C@H]5O)C4(C)C)[C@]3(C)[C@H](O)C[C@]12C [mogroside V]
[2]
  times sweeter than sucrose: 256-344 times

## O=S(=O)([O-])NC1CCCCC1.[Na+] [sodium cyclamate]
[2]
  times sweeter than sucrose: about 30 times

## OC[C@H]1O[C@H](O[C@]2(CCl)O[C@H](CCl)[C@@H](O)[C@@H]2O)[C@H](O)[C@@H](O)[C@H]1Cl [sucralose]
[2]
  times sweeter than sucrose: about 600 times

## Brazzein (QDKCKKVYENYPVSKCQLANQCNYDCKLDKHARSGECFYDEKRNLQCICDYCEY; UniProt P56552 1-54, looked up) [Protein]
[2]
  Sweetness by weight: 500-2000

## Curculin
[2]
  Sweetness by weight: 430-2070

## Inulin
[2]
  Sweetness by weight: 0.1

## Isomalt
[2]
  Sweetness by food energy: 0.9-1.3
  Sweetness by weight: 0.45-0.65

## Mabinlin
[2]
  Sweetness by weight: 100

## Maltodextrin
[2]
  Sweetness by weight: 0.15

## Monellin
[2]
  Sweetness by weight: 800-2,000

## Pentadin
[2]
  Sweetness by weight: 500

## Polydextrose
[2]
  Sweetness by weight: 0.1

B1: Miraculin (protein, UniProt P13087 30-220, looked up)
Miraculin: DSAPNPVLDIDGEKLRTGTNYYIVPVLRDHGGGLTVSATTPNGTFVCPPRVVQTRKEVDHDRPLAFFPENPKEDVVRVSTDLNINFSAFMPCRWTSSTVWRLDKYDESTGQYFVTIGGVKGNPGPETISSWFKIEEFCGSGFYKLVFCPTVCGSCKVKCGDVGIYIDQKGRRRLALSDKPFAFEFNKTVYF
[2]; result in words
  Notes (taste): A protein that does not taste sweet by itself
